SMILES strings stand for the structures.

This assay deals with T1, porcine pepsin A (Sus scrofa, UniProt P00791).
T1 construct: purchased Worthington Biochemical Corporation
In words: competitive binding assay, fluorescence polarization with pepstatin-Alexa647. The conditions noted are these: 100 nM probe, 0.03 U/ul porcine pepsin A, 37.5% DMSO, 0.1 M HCl pH 1. Here is the method: To examine whether HIV protease inhibitors bound and inhibited pepsin, we developed assays based on fluorescence polarization which measures size-dependent molecular rotation thereby permitting detection of degradation, association and dissociation events^80. A competitive binding assay was designed employing pepstatin, an inhibitor of sub-nanomolar affinity^81. Pepstatin-Alexa647 was synthesized by dissolving 1 mg pepstatin A (Sigma-Aldrich) in a 50:50 mixture of dimethylformamide (DMF) and dimethylsulfoxide (DMS) followed by the addition of N,N,N′,N′-Tetramethyl-O—(N-succinimidyl)uronium tetrafluoroborate (0.6 mg) and trimethylamine (10 μL) DMF. The mixture was stirred for 1 hour, after which 1 mg Alexa Fluor 647 Cadaverine, Disodium Salt (ThermoFisher Scientific) was added. After 2 hours, the solvents were evaporated under high vacuum (35° C.) and residue partially dissolved in 10% methanol and transferred onto a C18 cartridge (Waters Corporation, Milford, MA). Increasing percentages of methanol were used for the elution. Pepstatin-Alexa647 eluted at 45% methanol. An enzymatic inhibition assay was designed using casein substrate.^82 Bovine alpha casein (Sigma-Aldrich, St. Louis, MO) was labeled with Alexa Fluor 647 Carboxylic Acid, Succinimidyl Ester (ThermoFisher Scientific, Waltham, MA) as described.^82 Briefly, the two were combined at 2.5 ug/mg label to protein ratio in 0.1M sodium bicarbonate for 15 minutes and labeled casein was separated from unbound label in a Sephadex G-25 (Sigma-Aldrich) column comprised of 90×5 mm packed beads in a glass Pasteur pipette, eluted with dPBS pH7.4 (ThermoFisher Scientific). The fast-moving band (casein-bound fluorophore) was collected in ˜0.4 ml volume. […]
Assays were optimized using ranges of 0.3-1000 μM unlabeled pepstatin, 100-500 nM pepstatin-Alexa647 or casein-Alexa647 probe, 0.003-3 U/μl porcine pepsin (Worthington Biochemical Corporation, Lakewood, NJ), and 5-37.5% DMSO (HIV protease inhibitor diluent) in 0.1 M HCl, pH 1 with 0.01% v/v Tween-20 in 20 μl volumes in 384-well black optical plates (Nunc, Roskilde, DK) and read on a BioTek Cytation 5 (BioTek Instruments, Winooski, VT) with far red FP filter cube (excitation/emission 620/680 nm). […] Assays were performed twice with triplicate reactions read for five minutes and mean mP plotted against probe concentration (binding assay) or read at <2 minutes intervals over 30 minutes with mean mP of plotted over time (activity assay). Half maximal inhibitory concentration (IC50) of inhibitors were calculated from kinetic traces analyzed using an online tool (https://icekat.herokuapp.com/icekat)^83. mP was normalized to blank (absent inhibitor) to derive percent bound or activity.
On the technique in general: In fluorescence polarisation assays a small probe gives low polarisation when free and higher when bound to something large.

T1 sequence (P00791 60-385): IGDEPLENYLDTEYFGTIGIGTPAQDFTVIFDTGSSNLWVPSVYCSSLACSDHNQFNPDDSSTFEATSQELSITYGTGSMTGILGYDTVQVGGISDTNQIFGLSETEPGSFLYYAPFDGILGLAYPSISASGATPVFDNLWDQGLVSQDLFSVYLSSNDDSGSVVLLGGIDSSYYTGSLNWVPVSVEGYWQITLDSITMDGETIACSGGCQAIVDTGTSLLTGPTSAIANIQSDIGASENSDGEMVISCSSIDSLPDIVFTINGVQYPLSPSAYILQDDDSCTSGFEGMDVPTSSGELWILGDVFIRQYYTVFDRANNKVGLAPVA

With `CC(C)CN(C[C@@H](O)[C@H](Cc1ccccc1)NC(=O)O[C@H]1CO[C@H]2OCC[C@H]21)S(=O)(=O)c1ccc(N)cc1` [darunavir, [(3aS,4R,6aR)-2,3,3a,4,5,6a-hexahydrofuro[2,3-b]furan-4-yl]N-[(2S,3R)-4-[(4-aminophenyl)sulfonyl-(2-methylpropyl)amino]-3-hydroxy-1-phenylbutan-2-yl]carbamate], the “bound pepsin (competitive binding)” value is recorded as “low micromolar”.

The record behind these values is US20240041764A1, “Sustained-Release Oral Fosamprenavir Formulation for Treatment of Reflux” (The Medical College of Wisconsin, Inc., priority 2022, published 2024).
